In PubChem BioAssay (NCI):
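Tested at 5 concentrations; 48 h exposure; 96-well plates; endpoints linearly interpolated, else capped at highest concentration. The concentration for full growth arrest is given as TGI.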

Columns and labels:
Assay in all cases: NCI tumour cell line growth inhibition, 48 h
[1] = system: HCT-15 colon
[2] = system: EKVX NSCLC
[3] = system: NCI-H522 lung
[4] = system: MOLT-4 leukemia
[5] = system: RPMI-8226 leukemia
[6] = system: OVCAR-4 ovarian
[7] = system: A549 NSCLC
[8] = system: UACC-257 melanoma
[9] = system: NCI-H460 lung
[10] = system: HCC-2998 colon
[11] = system: SN12C renal
[12] = system: HT29 colon
[13] = system: CCRF-CEM leukemia
[14] = system: OVCAR-5 ovarian
[15] = system: SK-MEL-28 melanoma
[16] = system: A498 renal
[17] = system: NCI/ADR-RES ovarian
[18] = system: MDA-N
[19] = system: MDA-MB-435
[20] = system: MDA-MB-231 breast

Row | SMILES | TGI [1] | TGI [2] | TGI [3] | TGI [4] | TGI [5] | TGI [6] | TGI [7] | TGI [8] | TGI [9] | TGI [10] | TGI [11] | TGI [12] | TGI [13] | TGI [14] | TGI [15] | TGI [16] | TGI [17] | TGI [18] | TGI [19] | TGI [20]
1 | CC(=O)C(CN(C)C)C(c1ccccc1)c1c(O)c2ccccc2oc1=O (stereo not given) | > 100 µM | > 100 µM | > 100 µM | > 100 µM | > 100 µM | > 100 µM | > 100 µM | > 100 µM | > 100 µM | > 100 µM | > 100 µM | > 100 µM | > 100 µM | > 100 µM | > 100 µM | – | – | – | – | –
2 | O=C(Nc1cc(Cl)cc(Cl)c1)/C(Cc1nc2ccccc2[nH]c1=O)=N/NC(=O)c1ccncc1 | > 100 µM | > 100 µM | – | > 100 µM | > 100 µM | > 100 µM | > 100 µM | > 100 µM | > 100 µM | > 100 µM | – | – | > 100 µM | > 100 µM | – | > 100 µM | – | – | – | –
3 | O=S(=O)(c1ccccc1)n1cc(C[P+](c2ccccc2)(c2ccccc2)c2ccccc2)c2ccccc21 | 30.5 µM | 15.8 µM | 11.3 µM | 23.6 µM | 18.8 µM | 22 µM | 24.8 µM | – | 15.3 µM | 15.7 µM | 19.8 µM | 13.4 µM | 12.8 µM | 32.2 µM | 14.2 µM | 30 µM | – | – | – | –
4 | Cc1ccc(N=NN(C)C(=O)C(C)N)cc1 (stereo not given) | > 100 µM | > 100 µM | > 100 µM | > 100 µM | > 100 µM | > 100 µM | – | > 100 µM | > 100 µM | > 100 µM | > 100 µM | > 100 µM | > 100 µM | > 100 µM | > 100 µM | – | > 100 µM | > 100 µM | > 100 µM | –
5 | NC(=O)N/N=C(/Cc1nc2ccc(C(=O)c3ccccc3)cc2[nH]c1=O)C(=O)Nc1ccc(C(F)(F)F)cc1[N+](=O)[O-] | > 100 µM | > 100 µM | 76.3 µM | > 100 µM | > 100 µM | > 100 µM | > 100 µM | > 100 µM | > 100 µM | > 100 µM | > 100 µM | > 100 µM | > 100 µM | > 100 µM | > 100 µM | > 100 µM | – | – | – | –
6 | C[C@@H]1C2=CC[C@@]3(C)C(CCC3[C@H](C)[C@H]3C[C@@]4(C)O[C@@](c5cccnc5)(O3)OC4(C)C)[C@@H]2C2OC2[C@@]12CCC(=O)O2 (stereo not given in full) | > 100 µM | – | > 100 µM | – | > 100 µM | – | > 100 µM | > 100 µM | > 100 µM | > 100 µM | > 100 µM | > 100 µM | > 100 µM | > 100 µM | > 100 µM | > 100 µM | – | – | – | –
7 | CC1(C)OCC([C@H]2CC23SCCCS3)O1 (stereo not given in full) | > 100 µM | > 100 µM | > 100 µM | > 100 µM | > 100 µM | > 100 µM | > 100 µM | > 100 µM | > 100 µM | – | > 100 µM | > 100 µM | – | > 100 µM | > 100 µM | > 100 µM | – | – | – | –
8 | COC(=O)C1=C(C(=O)OC)SC(=C2S[C@@H]3[C@@H]4C[C@H]([C@@H]3S2)[C@H]2C(=O)OC(=O)[C@@H]42)S1 | > 100 µM | > 100 µM | > 100 µM | > 100 µM | > 100 µM | > 100 µM | > 100 µM | > 100 µM | – | > 100 µM | > 100 µM | > 100 µM | > 100 µM | > 100 µM | > 100 µM | > 100 µM | > 100 µM | – | > 100 µM | > 100 µM
9 | CC1(S)CC2C(CC1Sc1ccccc1)C2(C)C (stereo not given) | > 100 µM | > 100 µM | – | > 100 µM | > 100 µM | > 100 µM | > 100 µM | > 100 µM | > 100 µM | > 100 µM | > 100 µM | > 100 µM | > 100 µM | > 100 µM | > 100 µM | – | – | – | – | –
10 | NCCCCC(=O)c1cccnc1 | > 100 µM | > 100 µM | > 100 µM | > 100 µM | > 100 µM | – | > 100 µM | > 100 µM | > 100 µM | – | – | > 100 µM | > 100 µM | > 100 µM | > 100 µM | > 100 µM | – | – | – | –
11 | O=C(CC(=O)N1N=C(N(c2ccccc2)c2ccccc2)CC1c1ccccc1)Nc1ccc(Cl)cc1 (stereo not given) | > 100 µM | > 100 µM | > 100 µM | > 100 µM | > 100 µM | > 100 µM | > 100 µM | > 100 µM | > 100 µM | > 100 µM | > 100 µM | > 100 µM | > 100 µM | > 100 µM | > 100 µM | – | > 100 µM | – | > 100 µM | > 100 µM
12 | Cc1cnc2c(c1)C(=O)C1=C(OC(C)(C)CC1O)C2=O (stereo not given) | 36.2 µM | 36.4 µM | 31.4 µM | 44.3 µM | 60.6 µM | 25.6 µM | 31.9 µM | 27 µM | 23.9 µM | 32.9 µM | 29.8 µM | 43.6 µM | 51.1 µM | > 100 µM | 31.1 µM | – | – | – | – | –
